The results in this text go back to patent US12060577B2, “Compositions for expanding natural killer cells” (CASE WESTERN RESERVE UNIVERSITY, priority 2017, dated 2024).

SMILES strings stand for the structures.

The subject of this experiment is OCI-AML3 target cells. The experiment can be described thus: effect of TGF-beta and galunisertib on NK cell cytotoxicity (FIG. 11). Type of experiment: cell-based. As to conditions: 72 hours, NK cells expanded with K562 mbIL-21, 5:1 NK:target. Here is the method:
NK cell cytotoxic function was assessed by measuring the number of live cells identified by calcein-AM (CAM) labeling. Target cells and NK cells were labeled with CAM (BD Pharmingen, San Jose, Calif.) and calcein-violet (CV) (eBioscience from ThermoFisher), respectively for approximately 15 minutes in the dark at room temperature. NK cells were co-incubated with target cells at the indicated ratios for 4 hours in triplicate at 37° C. in a tissue culture incubator with 5% CO2, and the samples were analyzed by flow cytometry (Attune NXT, Invitrogen) in 96 well plates. The CV-positive NK cells were gated out for analysis. Percent lysis was calculated according to the equation below: […]
Referring to FIG. 11, expanded NK cells (K562 cells expressing mbIL-21) were treated with TGF-beta (5 ng/mL), galunisertib, or a combination thereof for 72 hours. […] That drop can be rescued and reversed by co-administering NK cells with galunisertib (middle and right bars), in which case killing efficacy was improved by about 10%.

For the molecule `Cc1cccc(-c2nn3c(c2-c2ccnc4ccc(C(N)=O)cc24)CCC3)n1` [galunisertib], the “improvement of killing efficacy” value was “about 10%”.
